Patent publication EP3958980B1, “TARGETED NOVEL TRIAZOLOTHIADIAZINE DERIVATIVES FOR THE TREATMENT OF LUNG CANCER” (Anadolu Universitesi, priority 2020, dated 2021)
≈ marks a conversion by molar mass, not a printed value. Where “and” joins values, the source holds several entries; their conditions need not be identical. Equal entries are not always repeated.

What was measured:
[1] = system: A549 cells; test: Cell cycle arrest by flow cytometry; format: cell-based, human; settings: IC50 doses, 24 hours
Method: After the active compounds were determined with the MTT assay, their effects on the cell cycle in A549 cells depending on IC50 concentrations were carried out according to the manufacturer's recommendations. Briefly, the cells were suspended in a citrate buffer solution. The cells were centrifuged at 400 × g for 5 minutes at room temperature. The supernatant was removed and 250 µL solution A was added on the pellet. Following this, 200 µL solution B was added and it was kept at room temperature 10 minutes. Afterwards 200 µL solution C was added and it was kept at +4 °C for 10 minutes. The cells were analyzed with flow cytometry using BD Biosciences ModFit software.

[2] = system: A549 cells; test: Annexin V FITC / PI flow cytometry (apoptosis); format: cell-based, human; settings: IC50 concentrations; for Early apoptotic cells% / Late apoptotic cells% / Necrosis% / Viable cells%: 24 hours; for early and late apoptotic effects: sum of early and late apoptotic cells
Method: Briefly, after the cells were centrifuged for 4 minutes at 800 rpm, they were washed twice with 1 × PBS and were suspended in the 1 × Annexin-V binding solution at a concentration of 2-3 × 10^6 cell/mL and then 100 µL of the cell solution was transferred into tubes. Then, 5 µL of Annexin-V Fluorescein isothiocyanate (FITC) and 10 µL of propidium iodide (PI) solution were added to each tube, after incubation for 15 minutes at room temperature, 400 µL × Annexin-V binding solution was added to each tube and the cells were analyzed by flow cytometry (BD FACSCalibur™) within 1 hour. The early and late apoptotic cell percentages were calculated according to positive control.

[3] = system: A549 human lung adenocarcinoma cells; test: MTT assay, in vitro cytotoxic activity on A549; format: cell-based; settings: for IC50: Homo sapiens, A549, 24 hour incubation, read-out: IC50 values (µg/mL) A549 cell line
Method: (§1) The in vitro cytotoxic effects of the compounds were determined with the MTT assay. For this purpose, MTT test was performed using A549 and CCD-19Lu cell lines. After the cell lines used in the invention were centrifuged following taking them out from liquid nitrogen (-196 °C), the cells were cultured in a CO2 incubator comprising 5% CO2 at 37 °C in flasks containing 10% fetal bovine serum (FBS), where CCD-19Lu cells were cultured with Dulbecco's Modified Eagle's Medium (DMEM) and A549 cells were cultured with Roswell Park Memorial Institute (RPMI). The cells that reach the sufficient number for the assay, were seeded to 96 well plates such that 2×10^3 cells were placed in each well and at the same time, components at concentrations of 1-500 µg/mL were added to cells and they were incubated at 37 °C. At the end of the 24 hour incubation period, the MTT powder (5 mg/mL in 1 × phosphate buffered saline (PBS)) was added to each well (20 µL). After a 2-4 h period under the same conditions, the medium was removed from the plate and 100 µL of DMSO was added to each well to dissolve the dye and kept for 10 minutes. Then the plates were read at a wavelength of 540 nm using ELx808-IU Bio-Tek plate reader. The control cell viability which was not treated with the components was accepted to be 100% and the viability rates of the cells were expressed as %. […] According to the results obtained, the dose range was extended until the IC50 value was determined. MTT assay is a frequently used method which measures the cytotoxic effects of the compounds on the cells by converting the yellow colored MTT stain into purple colored formazan crystals via the mitochondrial succinate dehydrogenase activity. In the cytotoxic activity tests of the compounds, A549 lung adenocarcinoma and CCDLu19 normal lung fibroblast cell lines were used.

[4] = system: Akt; test: Akt colorimetric in cell ELISA in A549 cells; format: cell-based, human; settings: 24 hours; for Akt inhibition (in words): compared to cisplatin and GSK690693
Method: After 10.000 cells were seeded in the wells, they were kept in the incubator for 24 hours. […] Briefly, the medium was removed from the wells and 100 µL of 4% formaldehyde was added. The plate was incubated in a fume hood for 15 minutes. Formaldehyde was removed and the plate was washed twice with 1X […] (TBS) such as to be 100 µL/well. 1X TBS was removed and 100 µL 1X permeabilization solution was added to each well and it was kept at room temperature for 15 minutes. After the 1X permeabilization solution was removed, the wells were washed with 100 µL 1X TBS once. 1X TBS was removed and 100 µL quenching solution was added to each well and it was kept at room temperature for 20 minutes. Afterwards, this solution was removed. The plate was washed 1 time with 1X TBS and 100 µL blocking solution was added to the wells and it was kept at room temperature for 30 minutes. At the end of this period, the blocking solution was removed and 50 µL primary antibody was added to the wells. The plate was sealed with a cover and it was incubated overnight at 4 °C. The primary antibody was removed and the plate wells were washed 3 times with 100 µL 1X washing solution. After the washing solution was removed, 100 µL diluted horseradish peroxidase (HRP) conjugate was added and it was incubated at room temperature for 30 minutes. Later on this conjugate was removed and 100 µL 3,3',5,5'-tetramethylbenzidine (TMB) […] was added to each well and the absorbance values were read at 450 nm for 30 minutes. The experiment was carried out in triplicate. The values of the blank wells were subtracted from the values of the untreated control and treated cells. The Akt activity% was determined as the relative absorbance of treated versus untreated control cells.

[5] = system: CCD-19Lu normal lung fibroblast cells; test: MTT assay, in vitro cytotoxic activity on CCD-19Lu; format: cell-based; settings: for IC50: Homo sapiens, CCD 19Lu, 24 hour incubation, read-out: IC50 values (µg/mL) CCDLul9 cell line
Method: as §1, with “determined.” for “determined. MTT assay is a frequently used method which measures the cytotoxic effects of the compounds on the cells by converting the yellow colored MTT stain into purple colored formazan crystals via the mitochondrial succinate dehydrogenase activity. In the cytotoxic activity tests of the compounds, A549 lung adenocarcinoma and CCDLu19 normal lung fibroblast cell lines were used.”
MTT assay is a frequently used method which measures the cytotoxic effects of the compounds on the cells by converting the yellow colored MTT stain into purple colored formazan crystals via the mitochondrial succinate dehydrogenase activity. In the cytotoxic activity tests of the compounds, A549 lung adenocarcinoma and CCDLu19 normal lung fibroblast cell lines were used.

[6] = IC50/2 concentration (9: 2.88; 11: 0.37; 12: 0.40; 14: 1.32; GSK690693: 3.34; Cisplatin: 11.50 µg/mL)
[7] = IC50/4 concentration (9: 1.44; 11: 0.18; 12: 0.20; 14: 0.66; GSK690693: 1.69; Cisplatin: 5.75 µg/mL)
[8] = IC50 concentration (9: 5.75; 11: 0.73; 12: 0.80; 14: 2.63; GSK690693: 6.75; Cisplatin: 23.00 µg/mL)

Row | SMILES | G0/G1% [1] [%] | G2/M% [1] [%] | S% [1] [%] | Early apoptotic cells% [2] [%] | Late apoptotic cells% [2] [%] | Necrosis% [2] [%] | early and late apoptotic effects [2] | IC50 values (µg/mL) A549 cell line ([3]; 24 hour incubation) [µg/mL] | Akt Inhibition% [4, 6] [%] | Akt Inhibition% [4, 7] [%] | Akt Inhibition% [4, 8] | Akt Inhibition% ([4]; IC50 concentration (9: 5.75; 11: 0.73; 12: 0.80; 14: 2.63; GSK690693: 6.75; Cisplatin: 23.00 µg/mL), listed as cisplatin) [%] | Viable cells% [2] [%] | cytotoxicity against CCDLu19 cells (in words) [5] | IC50 [5] [µg/mL] | IC50 [3] [µg/mL] | Akt inhibition (in words) [4]
1 | N.N.[Cl][Pt][Cl] [Cisplatin, reference compound] | 45.92 | 4.00 | 50.07 | 14.70 | 30.10 | 28.70 | 44.80% | 23.00 ± 1.41 | 56.23±1.45 | 50.46±6.89 | 59.55±8.44% | 59.55 | – | – | – | – | –
2 | CS(=O)(=O)c1ccc(C2=Nn3c(CCc4ccc5c(c4)OCO5)nnc3SC2)cc1 [Compound 9] | 53.29 | 9.66 | 37.04 | 5.00 | 16.20 | 6.30 | 21.20% | – | 7.31±1.48 | 15.99±1.06 | 45.47% and 45.47±3.76% | – | 72.50 | non-cytotoxic | 102 ± 10.4 (≈ 230 µM) | 5.75 ± 2.47 (≈ 13 µM) | moderate Akt inhibition
3 | FC(F)(F)c1ccc(C2=Nn3c(CCc4ccc5c(c4)OCO5)nnc3SC2)cc1 [Compound 11, 3-[2-(1,3-Benzodioxole-5-yl)ethyl]-6-(4-trifluoromethylphenyl)-7H-[1,2,4]triazolo [3,4-b][1,3,4]thiadiazine] | 57.29 | 8.15 | 34.57 | 2.90 | 9.90 | 14.80 | 12.80% | – | 6.66±3.51 | 0.91±1.29 | 8.18±3.74% | – | 72.30 | non-cytotoxic | 113 ± 5.77 (≈ 262 µM) | 0.73 ± 0.16 (≈ 1.69 µM) | did not exhibit significant Akt inhibition
4 | Fc1cccc(C2=Nn3c(CCc4ccc5c(c4)OCO5)nnc3SC2)c1 [Compound 12, 3-[2-(1,3-Benzodioxole-5-yl)ethyl]-6-(3-fluorophenyl)-7H-[1,2,4]triazolo [3,4-b] [1,3,4]thiadiazine] | 54.20 | 6.52 | 39.28 | 4.80 | 29.70 | 40.80 | 34.50% and 25.90% | – | 16.67±0.05 | 19.24±2.43 | 46.87% and 46.87±4.60% | – | 24.70 | non-cytotoxic | 34.3 ± 2.08 (≈ 89.8 µM) | 0.8 ± 0.05 (≈ 2.09 µM) | moderate Akt inhibition
5 | c1ccc(-c2ccc(C3=Nn4c(CCc5ccc6c(c5)OCO6)nnc4SC3)cc2)cc1 [Compound 14, 3-[2-(1,3-Benzodioxole-5-yl)ethyl]-6-(biphenyl-4-yl)-7H-[1,2,4]triazolo[3,4-b] [1,3,4]thiadiazine] | 54.92 | 7.91 | 37.17 | 4.20 | 21.70 | 34.60 | 25.90% and 34.50% | – | 15.99±3.66 | 23.51±3.00 | 44.30% and 44.30±5.68% | – | 39.50 | non-cytotoxic | 65 ± 5 (≈ 148 µM) | 2.63 ± 0.72 (≈ 5.97 µM) | moderate Akt inhibition
